# Literature values as cited in patent US20250099634A1, “METHOD OF TREATING CANCER” (Novartis AG, priority 2023, published 2025).
# System: G1-2 midgut and pancreatic NET
# Details: 120 mg/month, cited from earlier work
structure (smiles),measurement,setting,value
CC(C)[C@@H]1NC(=O)[C@H](CCCCN)NC(=O)[C@@H](Cc2c[nH]c3ccccc23)NC(=O)[C@H](Cc2ccc(O)cc2)NC(=O)[C@@H](NC(=O)[C@H](N)Cc2ccc3ccccc3c2)CSSC[C@@H](C(=O)N[C@H](C(N)=O)[C@@H](C)O)NC1=O [lanreotide],HR for progression or death with lanreotide vs. placebo,95% CI 0.30 to 0.73,0.47
same,median PFS,,not reached
